{
  "source": "the supplement of paper PMC10307832",
  "experiment_in_all_cases": "relative viability (nuclei count vs DMSO), 5 days (fraction); higher = more cells survive",
  "key": {"[1]": {"compound": "O=c1[nH]cc(F)c(=O)[nH]1 [5-Fluorouracil] + CCNC(=O)c1noc(-c2cc(C(C)C)c(O)cc2O)c1-c1ccc(CN2CCOCC2)cc1 [Luminespib] (partner 0.01 µM)", "how_it_was_run": "(§1)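 For relative viability, nuclei counts in treated wells were divided by those in vehicle wells. Lung cancer cell lines had been pin-tool dosed in 1536-well plates the day after seeding and cultured for 5 days, then fixed and stained in one step (final 0.05% Triton X-100, 1% formaldehyde, 1 ug/ml Hoechst) and imaged at 4×. Doses were one drug alone or a fixed anchor-drug dose plus five library-drug doses (not always all listed) in √10 steps, and values are duplicate-plate medians.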"}, "Sulindac + Foretinib": {"compound": "CC1=C(CC(=O)O)c2cc(F)ccc2/C1=C\\c1ccc([S+](C)[O-])cc1 [Sulindac] + COc1cc2c(Oc3ccc(NC(=O)C4(C(=O)Nc5ccc(F)cc5)CC4)cc3F)ccnc2cc1OCCCN1CCOCC1 [Foretinib] (partner 0.25 µM)", "how_it_was_run": "as §1"}, "[2]": {"compound": "O=c1[nH]cc(F)c(=O)[nH]1 [5-Fluorouracil] + CC(C)C[C@H](NC(=O)[C@H](Cc1ccccc1)NC(=O)c1cnccn1)B(O)O [Bortezomib] (partner 0.002 µM)", "how_it_was_run": "as §1"}, "[3]": {"compound": "CN[C@@H]1C[C@H]2O[C@@](C)([C@@H]1OC)n1c3ccccc3c3c4c(c5c6ccccc6n2c5c31)C(=O)NC4 [Staurosporine] + COc1cc2c(Oc3ccc(NC(=O)C4(C(=O)Nc5ccc(F)cc5)CC4)cc3F)ccnc2cc1OCCCN1CCOCC1 [Foretinib] (partner 0.25 µM)", "how_it_was_run": "as §1"}},
  "data": [
    {"cell line": "NCI-H2228", "values": [
      {"measurement": "relative viability", "setting": "[1]; first compound 0.02 µM", "value": 0.158},
      {"measurement": "relative viability", "setting": "[1]; first compound 0.2 µM", "value": 0.156},
      {"measurement": "relative viability", "setting": "[1]; first compound 0.6325 µM", "value": 0.145},
      {"measurement": "relative viability", "setting": "[1]; first compound 2 µM", "value": 0.18},
      {"measurement": "relative viability", "setting": "Sulindac + Foretinib; first compound 0.08 µM", "value": 1.02},
      {"measurement": "relative viability", "setting": "Sulindac + Foretinib; first compound 0.253 µM", "value": 1.07},
      {"measurement": "relative viability", "setting": "Sulindac + Foretinib; first compound 0.8 µM", "value": 0.773},
      {"measurement": "relative viability", "setting": "Sulindac + Foretinib; first compound 2.53 µM", "value": 0.751},
      {"measurement": "relative viability", "setting": "Sulindac + Foretinib; first compound 8 µM", "value": 0.899},
      {"measurement": "relative viability", "setting": "[2]; first compound 0.02 µM", "value": 1.03},
      {"measurement": "relative viability", "setting": "[2]; first compound 0.2 µM", "value": 0.911},
      {"measurement": "relative viability", "setting": "[2]; first compound 0.6325 µM", "value": 0.811},
      {"measurement": "relative viability", "setting": "[2]; first compound 2 µM", "value": 0.442},
      {"measurement": "relative viability", "setting": "[3]; first compound 0.005 µM", "value": 0.889},
      {"measurement": "relative viability", "setting": "[3]; first compound 0.01581 µM", "value": 0.537},
      {"measurement": "relative viability", "setting": "[3]; first compound 0.05 µM", "value": 0.317},
      {"measurement": "relative viability", "setting": "[3]; first compound 0.1581 µM", "value": 0.11},
      {"measurement": "relative viability", "setting": "[3]; first compound 0.5 µM", "value": 0.0985}
    ]}
  ]
}
